# Tests used:
# mitochondria = test: QSLR factorial logistic regression of mitochondrial localization (affinity coefficients, cross-validated prediction); parameters: species or system human; details: for αi^mito: influence of A group on mitochondrial localization, greater = stronger; for estimated A group affinity coefficient ai / estimated B group affinity coefficient bj: mitochondrial affinity; for estimated A group affinity coefficient ai: ±5 for groups always or never mitochondrial; for βj^mito: influence of B group on mitochondrial localization
# Excerpt: The first column and first row contain the A group and B group labels. The second column and second row contain the estimated A group and B group affinity coefficients (ai and bj respectively). The interior of the table contains the value sij=ai+bj for each compound (where positive values of sij indicate predicted localization to mitochondria, and negative values of sij indicate predicted localization to a non-mitochondrial compartment). The subscript m indicates experimentally determined mitochondrial localization. The subscript o indicates experimentally determined non-mitochondrial localization. The darkened boxes indicate correctly predicted mitochondrial localizations under cross-validation.
# Based on this matrix, factorial logistic regression (See, A. Agresti, Categorical Data Analysis, Wiley [2002]) was used to calculate mitochondrial affinity coefficients (ai and bj) for each A and B moiety. (Table 1). Since it is not necessary to observe all possible pairings between A and B building blocks to estimate the affinity coefficients, the QSLR approach can predict localization of unmeasured styryl molecules based on a minimal set of experimentally-determined localizations (see Methods). The methods of the present invention allow assessment of predictivity using the cross-validation technique by holding out one compound and fitting the affinity coefficients using the remaining compounds, predictivity can be assessed by comparing the actual localization of the held-out compound to its predicted localization. Repeating this for every measured compound in the library yields an error rate for the procedure.
# Briefly, this technique assigns quantitative scores to each A group (αi^mito) and to each B group (βj^mito), in such a way that αi^mito+βj^mito is positive for compounds with mitochondrial localization, and is negative for compounds lacking mitochondrial localization. […] In additional embodiments, same analysis can be applied to organelles other than mitochondria, provided there are a sufficient number of localizations to specific non-mitochondrial organelles in the combinatorial library of interest for reliable statistical calculations.
# In certain embodiments, the predictive performance of the above method was assessed using a cross-validation approach by calculating the proportion of all compounds that are correctly predicted. For cross-validation, each styryl product was set aside in sequence, and the factorial logistic model was fit to the remaining data. Then the resulting A and B scores for the held-out compound were summed. If the sum was positive, the held-out compound was predicted to be mitochondrial, while if the sum was negative, the held-out compound was predicted to be non-mitochondrial. […] The baseline performance of the method scored 104 correct out of 145, or 72%. This number is highly statistically significant compared to random guessing (p-value ˜10^−7). Thus, across the entire library, A and B moieties appear to contribute to localization in an independent, additive fashion.
# In some embodiments, subcellular localization data were converted to binary (0/1) values by assigning a value Gij=1 if compound i,j localized to mitochondria (even if it localized to other […] as well), and assigning Gij=0 if compound i,j localized exclusively to any non-mitochondrial cellular structure. Compounds with no localization were omitted from this part of the analysis. The αi and βj coefficients for A or B groups that are always observed to localize to mitochondria, or that never localize to mitochondria, were set to +/−5, respectively. The binary localization data were analyzed using factorial logistic regression. […]
# [1] = Additive decomposition of peak excitation and emission wavelengths (model coefficients of A and B groups); details: for αi^em: influence of A group on peak emission wavelength; for αi^em / αi^ex: A group 1 as baseline; for αi^ex: influence of A group on peak excitation wavelength; for βj^em: influence of B group on peak emission wavelength; for βj^em / βj^ex: B group 1 as baseline; for βj^ex: influence of B group on peak excitation wavelength
# Excerpt: The chemical structure of the styryl library is illustrated in FIG. 3. […] Initial analysis focused on measurements of peak emission and excitation wavelength obtained for all styryl products showing a single, localized peak (there were 256 such compounds for emission wavelength, and 193 compounds for excitation wavelength). […] The wavelength for the styryl compound formed by joining A group i with B group j is denoted as λij (or more specifically, λij^ex for excitation wavelength and λij^em for emission wavelength). The additive model λij=ai+βj+εij was fit to the data using least squares yielding parameters αi^ex, αi^em, βj^ex, and βj^em that quantify the influence of each A and B group on the spectrum of the styryl product. […] (FIGS. 8A-8B). […] The predictions were made ignoring interactions between the two functional moieties in the styryl compound. The predicted values were obtained without bias, by holding out the data point to be predicted when training the model.
# In preferred embodiments, using the cross-validation approach disclosed herein, each compound was held out in sequence, the model was trained using the remaining compounds, then the wavelength value for the held-out compound was predicted based on the resulting fitted model. This process produced correlations between measured and predicted values of ρ^em=0.78 (emission) and ρ^ex=0.69 (excitation).
# Based on this analysis, the contribution of the A and B functional groups to the fluorescence of the styryl product is quantified using the fitted coefficients αi^ex, βj^ex, […], and βj^em. Since these coefficients are on a scale without origin, in some embodiments, the invention uses the first A group and B group as a baseline, so […], β1^ex=0, and so on. Table 3 contains the model coefficients of all A and B groups for peak excitation and emission wavelength.
# Greater values of αi^ex, αi^em, βj^ex, and βj^em indicate greater peak wavelength. Greater values of αi^mito and […] indicate stronger mitochondrial localization. A groups 40 and 41 were not screened for localization. A groups 2, 29, and 33 only formed fluorescent products with a single B group, so were not included in the spectral analysis.
# In some embodiments, the wavelength values for peak excitation and emission were fit to the additive model λij=αi+βj+εij, where εij denotes error that is made as small as possible in the fitting process. Using least squares to minimize the function [formula] over all compounds having experimental data yields coefficient estimates αi for each A group and βj for each B group. One set of coefficient estimates is obtained for the excitation values and another set is obtained for the emission values. To predict the wavelength of a new compound formed from A and B groups i* and j* the sum αi*+βj* is used.
# In some embodiments, for both the spectral and localization analysis, cross-validation was used to obtain unbiased estimates of the prediction performance. Each compound was held out in sequence, and the coefficients αi and βj were fit to the remaining compounds. These values were then used to form a prediction for the held out compound, then the predicted and experimental values were compared to obtain a measure of the accuracy of prediction. Since the wavelength values are on a continuous scale, the predicted values were compared to the experimental values using Pearson correlation coefficients. The localization values are dichotomous, so the proportion of matching predictions was used to compare predicted and experimental localization values.
SMILES,αi^mito (mitochondria),estimated A group affinity coefficient ai (mitochondria),αi^em [1],αi^ex [1],influence of A group on mitochondrial localization (mitochondria),influence of group on peak wavelength [1],βj^mito (mitochondria),estimated B group affinity coefficient bj (mitochondria),βj^em [1],βj^ex [1]
COc1cc(OC)c(OC)cc1C=O [A group 38],−1.3,−1.3,22.2 nm,−15.6 nm,–,–,–,–,–,–
O=Cc1ccc(Br)cc1 [A group 5],5.0,5.0,26.7 nm,−32.3 nm,–,–,–,–,–,–
COc1ccc(C=O)c2ccccc12 [A group 14],−1.2,−1.2,0.3 nm,−1.6 nm,–,–,–,–,–,–
O=Cc1ccccc1F [A group 29],5.0,5.0,−8.0 nm,–,–,–,–,–,–,–
O=Cc1ccc(F)cc1 [A group 30],5.0,5.0,50.1 nm,7.4 nm,mitochondrial attraction,redder,–,–,–,–
Cc1ccnc(-c2cc(C)cc[n+]2C)c1.[I-] [B group 10],–,–,–,–,–,–,0.8,0.8,19.8 nm,1.6 nm
Cc1cnc2c(ccc3c(C)c(C)c[n+](C)c32)c1C.[I-] [B group 14],–,–,–,–,–,strongly contribute towards the red end of the spectrum,0.0,0.1,57.9 nm,100.6 nm
COc1ccccc1C=O [A group 9],5.0,5.0,−17.6 nm,−36.7 nm,–,–,–,–,–,–
Cc1cc[n+](C)c(Br)c1.[I-] [B group 6],–,–,–,–,–,–,−5.0,−5.0,3.5 nm,27.7 nm
COc1cc(C=O)cc(OC)c1OC [A group 13],5.0,5.0,0.2 nm,−44.2 nm,–,–,–,–,–,–
CC(=O)Nc1ccc(C=O)cc1 [A group 18],0.8,0.8,51.2 nm,−24.3 nm,–,strongly contribute towards the red end of the spectrum,–,–,–,–
COc1ccc(C=O)cc1 [A group 10],1.3,1.3,−23.7 nm,8.1 nm,–,–,–,–,–,–
Cc1ccccc1C=O [A group 7],5.0,5.0,38.5 nm,−44.1 nm,–,–,–,–,–,–
COc1ccc2c(ccc(C)[n+]2C)c1.[I-] [B group 9],–,–,–,–,–,strongly contribute towards the red end of the spectrum,−2.0,−2.0,35.0 nm,−0.1 nm
O=Cc1cccc([N+](=O)[O-])c1 [A group 21],0.8,0.8,21.6 nm,−68.0 nm,–,the far red shift is not observed,–,–,–,–
O=CCc1ccccc1 [A group 1],−0.2,−0.2,0.0 nm,0.0 nm,–,–,–,–,–,–
O=Cc1cccc(Br)c1 [A group 4],−5.0,−5.0,23.5 nm,−34.0 nm,–,–,–,–,–,–
Cc1cc(C)[n+](C)c(C)c1.[I-] [B group 13],–,–,–,–,–,–,2.5,2.5,−1.8 nm,−1.1 nm
Cc1ccc2ccccc2[n+]1C.[I-] [B group 8],–,–,–,–,–,strongly contribute towards the red end of the spectrum,0.4,0.4,64.8 nm,53.0 nm
Cc1cc[n+](C23CC4CC(CC(C4)C2)C3)cc1.[Br-] [B group 2],–,–,–,–,–,–,2.0,2.0,4.3 nm,4.9 nm
Cc1cc[n+](C)cc1.[I-] [B group 1],–,–,–,–,–,–,1.9,1.9,0.0 nm,0.0 nm
O=Cc1ccccc1Br [A group 3],5.0,5.0,46.3 nm,35.7 nm,–,–,–,–,–,–
CN(C)c1ccc(C=CC=O)cc1 [A group 37],−0.9,−0.9,122.1 nm,82.9 nm,–,strongly contribute towards the red end of the spectrum,–,–,–,–
O=CC=Cc1ccccc1[N+](=O)[O-] [A group 36],5.0,5.0,3.8 nm,−25.3 nm,–,the far red shift is not observed,–,–,–,–
O=Cc1ccc(Cl)cc1 [A group 6],5.0,5.0,−9.5 nm,4.9 nm,–,–,–,–,–,–
Cc1cccc[n+]1C.[I-] [B group 3],–,–,–,–,–,–,4.2,4.2,−2.7 nm,−12.7 nm
O=Cc1ccc([N+](=O)[O-])cc1 [A group 22],5.0,5.0,−10.3 nm,−52.8 nm,–,the far red shift is not observed,–,–,–,–
O=Cc1ccc2ccccc2c1 [A group 33],5.0,5.0,−26.5 nm,–,mitochondrial attraction,bluer,–,–,–,–

# Reference: US20070111251A1, “Chemical address tags” (priority 2003, published 2007)
